Measured values taken from patent US9670261B2 (Sanofi, priority 2012, dated 2017).
*1 amine or outer side, *2 acyl side, *3 side chain or, on linkers, in order; H or OH if unused. Where a SMILES comes first, the peptide text is derived from it. Side-chain parts run from the residue outwards. [ ]: non-standard residue; d: D form. The star is where a group is joined. γGlu = O=C(O)[C@H](CCC(=O)[*:2])N[*:1]; Palmitoyl = CCCCCCCCCCCCCCCC(=O)*; Aib = CC(C)(N)C(=O)O

Columns and labels:
female NMRI-mice = assay: Automated assessment of 22-hours feed intake in mice; type: in vivo
Experimental: Female NMRI-mice of a body weight between 20 and 30 g were used. Mice were adapted to housing conditions for at least one week and for at least one day single-caged in the assessment equipment, when basal data were recorded simultaneously. On the study day, test product was administered subcutaneously close to the lights-off phase (12 h lights off) and assessment of feed consumption was directly started afterwards. Assessment included continued monitoring over 22 hours, while data are processed as mean over every 30 min. Repetition of this procedure over several days was possible. Restriction of assessment to 22 hours was for practical reasons to allow for reweighing of animals, refilling of feed and water and drug administration between procedures. Results could be assessed as cumulated data over 22 hours or differentiated to 30 min intervals. […] Statistical analyses were performed with Everstat 6.0 by two-way ANOVA on repeated measures and Dunnett's post-hoc analyses. Differences were considered statistically significant at the p<0.05 level. […] Lights-off phase (dark phase) started 4 hours later. […].

[1] = tested on: female leptin-receptor deficient diabetic db/db mice; assay: Blood glucose and HbA1c in leptin-receptor deficient diabetic db/db mice (method 3); type: in vivo
Method in brief: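 Female db/db mice (9–10 weeks at arrival) dosed at 5 mL/kg for 4 weeks with free food and water. Tail blood without anaesthesia: glucose by hexokinase and HbA1c measured before and at end of treatment, plus a 24-h glucose profile; repeated-measures two-way ANOVA with Dunnett's versus vehicle db/db, p<0.05.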

human GIP receptor = target: T1, human GIP receptor (Homo sapiens, UniProt P48546); assay: cAMP response (HTRF) of HEK-293 cells stably expressing human GIP receptor; type: cell-based; details: Table 7; cAMP formation; read-out: EC50 hGIP R
T1 construct: expressed in transfected cells
T1 sequence (P48546 22-466): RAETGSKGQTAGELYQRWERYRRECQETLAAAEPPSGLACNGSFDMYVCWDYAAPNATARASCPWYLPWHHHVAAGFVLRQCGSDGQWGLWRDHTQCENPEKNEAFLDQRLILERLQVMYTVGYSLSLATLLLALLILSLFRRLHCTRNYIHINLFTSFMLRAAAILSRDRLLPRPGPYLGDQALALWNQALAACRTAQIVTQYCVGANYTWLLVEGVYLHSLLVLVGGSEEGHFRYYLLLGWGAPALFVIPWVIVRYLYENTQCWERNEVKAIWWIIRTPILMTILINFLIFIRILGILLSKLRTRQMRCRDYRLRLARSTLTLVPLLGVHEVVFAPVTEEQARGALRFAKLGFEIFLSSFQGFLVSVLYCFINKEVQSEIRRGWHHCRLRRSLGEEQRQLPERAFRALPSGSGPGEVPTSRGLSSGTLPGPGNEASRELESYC
Method in brief: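 After near-confluent growth in DMEM with 10% FBS, cells were washed in Ca/Mg-free PBS, lifted with accutase and diluted to 400000 cells/ml in IBMX (2 mM)-containing HEPES-buffered HBSS with 0.1% BSA. Compounds were applied for 30 minutes at room temperature before homogeneous time-resolved fluorescence quantitation of cAMP.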

CCCCCCCCCCCCCCCC(=O)N[C@@H](CCC(=O)NCCCC[C@H](NC(=O)[C@H](CCC(N)=O)NC(=O)[C@@H](NC(=O)[C@H](CO)NC(=O)[C@H](CC(C)C)NC(=O)[C@H](CC(=O)O)NC(=O)[C@H](CO)NC(=O)[C@@H](NC(=O)[C@H](Cc1ccccc1)NC(=O)[C@@H](NC(=O)CNC(=O)[C@H](CCC(=O)O)NC(=O)C(C)(C)NC(=O)[C@@H](N)Cc1ccc(O)cc1)[C@@H](C)O)[C@@H](C)O)[C@@H](C)CC)C(=O)N[C@@H](CCC(=O)O)C(=O)N[C@@H](CCCCN)C(=O)N[C@@H](CCCNC(=N)N)C(=O)N[C@@H](C)C(=O)N[C@@H](C)C(=O)NC(C)(C)C(=O)N[C@@H](CCC(=O)O)C(=O)N[C@@H](Cc1ccccc1)C(=O)N[C@H](C(=O)N[C@@H](CCC(=O)O)C(=O)N[C@@H](Cc1c[nH]c2ccccc12)C(=O)N[C@@H](CC(C)C)C(=O)N[C@@H](CCCCN)C(=O)N[C@@H](CC(N)=O)C(=O)N[C@H](C(=O)NCC(=O)N1CCC[C@H]1C(=O)N[C@@H](CO)C(=O)N[C@@H](CO)C(=O)NCC(=O)N[C@@H](C)C(=O)N1CCC[C@H]1C(=O)N1CCC[C@H]1C(=O)N1CCC[C@H]1C(=O)N[C@@H](CO)C(N)=O)[C@@H](C)O)[C@@H](C)CC)C(=O)O [SEQ ID NO: 9, Y-Aib-E-G-T-F-T-S-D-L-S-I-Q-K(γE-x53)-E-K-R-A-A-Aib-E-F-I-E-W-L-K-N-T-G-P-S-S-G-A-P-P-P-S-NH2] (H-Y[Aib]EGTFTSDLSIQK([γGlu-Palmitoyl])EKRAA[Aib]EFIEWLKNTGPSSGAPPPS-NH2)
reduction of feed intake after 22 hours (female NMRI-mice; 3 μg/kg s.c. (not significant, p=0.78)): 11% | reduction of feed intake after 22 hours (female NMRI-mice; 10 μg/kg s.c.): 62% | HbA1c level versus db/db control mice at the end of the study ([1]; 10, 30 and 100 μg/kg s.c. once daily, 4 weeks, all three doses): lower HbA1c level | blood glucose level versus db control mice at the end of the study ([1]; 10, 30 or 100 μg/kg s.c. once daily, 4 weeks): significant lower blood glucose level | blood glucose after 4 weeks of treatment ([1]; 10, 30 or 100 μg/kg s.c. once daily, 4 weeks, compared with liraglutide): strong and dose-dependent decrease in blood glucose, superior to liraglutide in the medium and highest dose | blood glucose compared to db/db control mice, 24 h profile ([1]; single 100 μg/kg s.c., fed db/db mice): significant decrease in blood glucose | EC50 (human GIP receptor): 5.7 pM
